Measured values from patent US7268128B2, “1,3,5-trisubstituted-5-phenyl and 5-pyridyl pyrazolopyrimidinone derivatives having PDE7 inhibiting action” (Ausbio Pharma Co., Ltd., priority 2001, dated 2007).

target: T1, PDE7 (type VII phosphodiesterase) (Homo sapiens, UniProt Q13946); assay: PDE7 inhibiting activity (3H-cAMP hydrolysis, active fraction from MOLT-4 cells); format: biochemical; conditions: PDE7 fraction from MOLT-4 cells, 0.064 μM cAMP, 10 μM rolipram present, 2 hours at 25° C.; read-out: IC50 values for phosphodiesterase inhibiting activities (PDE7)
T1 construct: endogenous in cells; host or cells: MOLT-4 (ATCC CRL-1582), soluble fraction, HiTrapQ anion-exchange fraction
T1 sequence (Q13946 whole entry): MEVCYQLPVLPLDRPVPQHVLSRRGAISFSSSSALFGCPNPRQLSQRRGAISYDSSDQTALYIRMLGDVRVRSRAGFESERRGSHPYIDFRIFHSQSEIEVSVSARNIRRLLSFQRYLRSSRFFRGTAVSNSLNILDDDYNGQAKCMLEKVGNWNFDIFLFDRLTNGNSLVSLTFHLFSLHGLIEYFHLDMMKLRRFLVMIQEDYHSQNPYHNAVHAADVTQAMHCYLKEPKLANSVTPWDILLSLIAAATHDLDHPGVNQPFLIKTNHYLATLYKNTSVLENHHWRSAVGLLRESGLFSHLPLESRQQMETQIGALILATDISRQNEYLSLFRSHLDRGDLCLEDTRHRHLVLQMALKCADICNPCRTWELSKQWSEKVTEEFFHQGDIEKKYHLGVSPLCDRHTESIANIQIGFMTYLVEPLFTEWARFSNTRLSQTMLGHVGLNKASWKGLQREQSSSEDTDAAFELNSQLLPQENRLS
In short: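 Read-out: supernatant radioactivity after twice-repeated QAE-Sephadex treatment of a 2 h, 25° C reaction (3H-cAMP at 0.064 μM cAMP, 10 μM rolipram, 5′-nucleotidase, 1 mM MgCl2, pH 7.5). Enzyme is an anion-exchange-purified fraction from MOLT-4 T cells. IC50 taken as half-maximal inhibition.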

COc1cc(N(C)CCN(C)C)ccc1-c1nc2c(c(C3CCCCC3)nn2C)c(=O)[nH]1 [Example 132, 3-Cyclohexyl-6-{4-[[2-(dimethylamino)ethyl](methyl)amino]-2-methoxyphenyl}-1-methyl-1,5-dihydro-4H-pyrazolo[3,4-d]pyrimidin-4-one monomethanesulfonate] and COc1cc(S(=O)(=O)N(C)CCN(C)C)ccc1-c1nc2c(c(C3CCCCC3)nn2C)c(=O)[nH]1 [Example 158, 4-(3-Cyclohexyl-1-methyl-4-oxo-4,5-dihydro-1H-pyrazolo[3,4-d]pyrimidin-6-yl)-N-(2-(dimethylamino)ethyl)-3-methoxy-N-methylbenzenesulfonamide monomethanesulfonate] cannot be ordered by IC50: at most 0.01 µM for the first, at most 1 µM for the second.

COc1cc(N2CCCNCC2)ccc1-c1nc2c(c(C3CCCCC3)nn2C)c(=O)[nH]1 [Example 134, 3-Cyclohexyl-6-[4-(1,4-diazepan-1-yl)-2-methoxyphenyl]-1-methyl-1,5-dihydro-4H-pyrazolo[3,4-d]pyrimidin-4-one monomethanesulfonate] and COc1cc(N2CCCN(C)CC2)ccc1-c1nc2c(c(C3CCCCC3)nn2C)c(=O)[nH]1 [Example 136, 3-Cyclohexyl-6-[2-methoxy-4-(4-methyl-1,4-diazepan-1-yl)phenyl]-1-methyl-1,5-dihydro-4H-pyrazolo[3,4-d]pyrimidin-4-one monomethanesulfonate] cannot be ordered by IC50: at most 0.01 µM for the first, at most 0.01 µM for the second.

CN1CCN(c2ccc(-c3nc4c(c(C5CCCCC5)nn4C)c(=O)[nH]3)c(OC(F)F)c2)CC1 [Example 139, 3-Cyclohexyl-6-[2-(difluoromethoxy)-4-(4-methyl-1-piperazinyl)phenyl]-1-methyl-1,5-dihydro-4H-pyrazolo[3,4-d]pyrimidin-4-one monomethanesulfonate] and CN1CCN(c2ccc(-c3nc4c(c(C5CCCCC5)nn4C)c(=O)[nH]3)cc2)CC1 [Example 179, 3-Cyclohexyl-1-methyl-6-[4-(4-methyl-1-piperazinyl)phenyl]-1,5-dihydro-4H-pyrazolo[3,4-d]pyrimidin-4-one monomethanesulfonate] cannot be ordered by IC50: at most 1 µM for the first, at most 1 µM for the second.

COc1cc(NC(N)=O)ccc1-c1nc2c(c(C3CCCCC3)nn2C)c(=O)[nH]1 [Example 140, N-[4-(3-cyclohexyl-1-methyl-4-oxo-4,5-dihydro-1H-pyrazolo[3,4-d]pyrimidin-6-yl)-3-methoxyphenyl]urea] and CCOC(=O)Nc1ccc(-c2nc3c(c(C4CCCCC4)nn3C)c(=O)[nH]2)c(OC)c1 [Example 145, Ethyl 4-(3-cyclohexyl-1-methyl-4-oxo-4,5-dihydro-1H-pyrazolo[3,4-d]pyrimidin-6-yl)-3-methoxyphenylcarbamate] cannot be ordered by IC50: at most 0.01 µM for the first, at most 0.01 µM for the second.

COc1cc(NS(C)(=O)=O)ccc1-c1nc2c(c(C3CCCCC3)nn2C)c(=O)[nH]1 [Example 142, N-[4-(3-cyclohexyl-1-methyl-4-oxo-4,5-dihydro-1H-pyrazolo[3,4-d]pyrimidin-6-yl)-3-methoxyphenyl]methanesulfonamide] and COc1cc(N(C)S(C)(=O)=O)ccc1-c1nc2c(c(C3CCCCC3)nn2C)c(=O)[nH]1 [Example 147, N-[4-(3-cyclohexyl-1-methyl-4-oxo-4,5-dihydro-1H-pyrazolo[3,4-d]pyrimidin-6-yl)-3-methoxyphenyl]-N-methylmethanesulfonamide] cannot be ordered by IC50: at most 0.01 µM for the first, at most 1 µM for the second.

COc1cc(N2CCOC2=O)ccc1-c1nc2c(c(C3CCCCC3)nn2C)c(=O)[nH]1 [Example 143, 3-Cyclohexyl-6-[2-methoxy-4-(2-oxo-1,3-oxazolidin-3-yl)phenyl]-1-methyl-1,5-dihydro-4H-pyrazolo[3,4-d]pyrimidin-4-one] and COc1cc(N2CCNC2=O)ccc1-c1nc2c(c(C3CCCCC3)nn2C)c(=O)[nH]1 [Example 144, 3-Cyclohexyl-6-[2-methoxy-4-(2-oxo-1-imidazolidinyl)phenyl]-1-methyl-1,5-dihydro-4H-pyrazolo[3,4-d]pyrimidin-4-one] cannot be ordered by IC50: at most 0.01 µM for the first, at most 0.01 µM for the second.

COc1cc(N(C)C(C)=O)ccc1-c1nc2c(c(C3CCCCC3)nn2C)c(=O)[nH]1 [Example 146, N-[4-(3-cyclohexyl-1-methyl-4-oxo-4,5-dihydro-1H-pyrazolo[3,4-d]pyrimidin-6-yl)-3-methoxyphenyl]-N-methylacetamide] and COc1cc(S(=O)(=O)N(C)CCO)ccc1-c1nc2c(c(C3CCCCC3)nn2C)c(=O)[nH]1 [Example 156, 4-(3-Cyclohexyl-1-methyl-4-oxo-4,5-dihydro-1H-pyrazolo[3,4-d]pyrimidin-6-yl)-N-(2-hydroxyethyl)-3-methoxy-N-methylbenzenesulfonamide] cannot be ordered by IC50: at most 1 µM for the first, at most 1 µM for the second.

COc1cc(NC(=O)N2CCOCC2)ccc1-c1nc2c(c(C3CCCCC3)nn2C)c(=O)[nH]1 [Example 148, N-[4-(3-cyclohexyl-1-methyl-4-oxo-4,5-dihydro-1H-pyrazolo[3,4-d]pyrimidin-6-yl)-3-methoxyphenyl]-4-morpholinecarboxamide] and COc1cc(N2CCSCC2)ccc1-c1nc2c(c(C3CCCCC3)nn2C)c(=O)[nH]1 [Example 176, 3-Cyclohexyl-6-[2-methoxy-4-(4-thiomorpholinyl)phenyl]-1-methyl-1,5-dihydro-4H-pyrazolo[3,4-d]pyrimidin-4-one] cannot be ordered by IC50: at most 0.01 µM for the first, at most 1 µM for the second.

CNC1CCN(c2ccc(-c3nc4c(c(C5CCCCC5)nn4C)c(=O)[nH]3)c(OC)c2)CC1 [Example 150, 3-Cyclohexyl-6-{2-methoxy-4-[4-(methylamino)-1-piperidinyl]phenyl}-1-methyl-1,5-dihydro-4H-pyrazolo[3,4-d]pyrimidin-4-one monomethanesulfonate] and COc1cc(N2CCC(N)CC2)ccc1-c1nc2c(c(C3CCCCC3)nn2C)c(=O)[nH]1 [Example 185, 6-[4-(4-Amino-1-piperidinyl)-2-methoxyphenyl]-3-cyclohexyl-1-methyl-1,5-dihydro-4H-pyrazolo[3,4-d]pyrimidin-4-one monomethanesulfonate] cannot be ordered by IC50: at most 0.01 µM for the first, at most 0.01 µM for the second.

COc1cc(N2CCN(C)C2=O)ccc1-c1nc2c(c(C3CCCCC3)nn2C)c(=O)[nH]1 [Example 152, 3-Cyclohexyl-6-[2-methoxy-4-(3-methyl-2-oxo-1-imidazolidinyl)phenyl]-1-methyl-1,5-dihydro-4H-pyrazolo[3,4-d]pyrimidin-4-one] and COc1cc(N2CCCS2(=O)=O)ccc1-c1nc2c(c(C3CCCCC3)nn2C)c(=O)[nH]1 [Example 155, 3-Cyclohexyl-6-[4-(1,1-dioxido-2-isothiazolidinyl)-2-methoxyphenyl]-1-methyl-1,5-dihydro-4H-pyrazolo[3,4-d]pyrimidin-4-one] cannot be ordered by IC50: at most 0.01 µM for the first, at most 0.01 µM for the second.

COc1cc(N2CCC(N(C)C)CC2)ccc1-c1nc2c(c(C3CCCCC3)nn2C)c(=O)[nH]1 [Example 154, 3-Cyclohexyl-6-{4-[4-(dimethylamino)-1-piperidinyl]-2-methoxyphenyl}-1-methyl-1,5-dihydro-4H-pyrazolo[3,4-d]pyrimidin-4-one monomethanesulfonate] and COc1cc(S(=O)(=O)N2CCC(N)CC2)ccc1-c1nc2c(c(C3CCCCC3)nn2C)c(=O)[nH]1 [Example 175, 6-{4-[(4-Amino-1-piperidinyl)sulfonyl]-2-methoxyphenyl}-3-cyclohexyl-1-methyl-1,5-dihydro-4H-pyrazolo[3,4-d]pyrimidin-4-one monomethanesulfonate] cannot be ordered by IC50: at most 0.01 µM for the first, at most 1 µM for the second.

COc1cc(S(=O)(=O)NCCCO)ccc1-c1nc2c(c(C3CCCCC3)nn2C)c(=O)[nH]1 [Example 159, 4-(3-Cyclohexyl-1-methyl-4-oxo-4,5-dihydro-1H-pyrazolo[3,4-d]pyrimidin-6-yl)-N-(3-hydroxypropyl)-3-methoxybenzenesulfonamide] and COc1cc(S(=O)(=O)N2CCC(O)C2)ccc1-c1nc2c(c(C3CCCCC3)nn2C)c(=O)[nH]1 (centres unmarked) [Example 164, 3-Cyclohexyl-6-{4-[(3-hydroxy-1-pyrrolidinyl)sulfonyl]-2-methoxyphenyl}-1-methyl-1,5-dihydro-4H-pyrazolo[3,4-d]pyrimidin-4-one] cannot be ordered by IC50: at most 1 µM for the first, at most 1 µM for the second.

COc1cc(S(=O)(=O)N2CCCNCC2)ccc1-c1nc2c(c(C3CCCCC3)nn2C)c(=O)[nH]1 [Example 161, 3-Cyclohexyl-6-[4-(1,4-diazepan-1-ylsulfonyl)-2-methoxyphenyl]-1-methyl-1,5-dihydro-4H-pyrazolo[3,4-d]pyrimidin-4-one monomethanesulfonate] and COc1cc(S(=O)(=O)N2CCSCC2)ccc1-c1nc2c(c(C3CCCCC3)nn2C)c(=O)[nH]1 [Example 165, 3-Cyclohexyl-6-[2-methoxy-4-(4-thiomorpholinylsulfonyl)phenyl]-1-methyl-1,5-dihydro-4H-pyrazolo[3,4-d]pyrimidin-4-one] cannot be ordered by IC50: at most 1 µM for the first, at most 1 µM for the second.

COc1cc(S(=O)(=O)N2CCCN(C)CC2)ccc1-c1nc2c(c(C3CCCCC3)nn2C)c(=O)[nH]1 [Example 163, 3-Cyclohexyl-6-{2-methoxy-4-[(4-methyl-1,4-diazepan-1-yl)sulfonyl]phenyl}-1-methyl-1,5-dihydro-4H-pyrazolo[3,4-d]pyrimidin-4-one monomethanesulfonate] and CNC1CCN(S(=O)(=O)c2ccc(-c3nc4c(c(C5CCCCC5)nn4C)c(=O)[nH]3)c(OC)c2)CC1 [Example 169, 3-Cyclohexyl-6-(2-methoxy-4-{[4-(methylamino)-1-piperidinyl]sulfonyl}phenyl)-1-methyl-1,5-dihydro-4H-pyrazolo[3,4-d]pyrimidin-4-one monomethanesulfonate] cannot be ordered by IC50: at most 0.01 µM for the first, at most 1 µM for the second.

With COc1cc(S(=O)(=O)N2CCC(N)C2)ccc1-c1nc2c(c(C3CCCCC3)nn2C)c(=O)[nH]1 (centres unmarked) [Example 172, 6-{4-[(3-Amino-1-pyrrolidinyl)sulfonyl]-2-methoxyphenyl}-3-cyclohexyl-1-methyl-1,5-dihydro-4H-pyrazolo[3,4-d]pyrimidin-4-one monomethanesulfonate] the IC50 was at most 1 µM.
